The values below come from US20220205982A1 (CHILDREN'S HOSPITAL MEDICAL CENTER, priority 2019, published 2022).

The data set is described as follows: Real-time PK study of melphalan in whole blood by PS-MS/MS in patients undergoing HSCT. Format: in vivo. Conditions: human, intravenous. As to the method:
Patients undergoing HSCT were administered by intravenous infusion a low dose of melphalan (referred to as the ‘test’ dose) to first determine each patient's individualized pharmacokinetics of the drug. After that the personalized optimal full dose was calculated from these measurements and then administered. The test dose equated to 10% of the expected standard full dose for each patient. Blood samples for pharmacokinetic measurement were collected after the test dose and again after the full standard dose of melphalan. Samples were collected at baseline, 5-10 mins before drug infusion, and then 5 min, 15 min, 30 min, 45 min, 1 h, 2h, 2.5h, 4h, and 6h post-infusion. […] Plasma samples from the same blood draw were also obtained after centrifugation at 3000 rpm for 15 min and stored at −80° C. degree until analyzed by both PS-MS/MS and LC-ESI-MS/MS. […]
PS-MS/MS was performed on an automated PS ion source (Prosolia, Inc. Indianapolis, Ind.) interfaced with a TSQ Quantum Ultra mass spectrometer (Thermo Scientific, San Jose, Calif.). […] A total of 50 scans in positive ion mode were acquired over 1 min for each m/z transition monitored. The transitions m/z 305.3 →246.2 for melphalan and the corresponding transition m/z 313.3→254.2 for the I.S. were used for quantification, while the transition m/z 305.3→194.2 served as a qualifier for melphalan confirmation. […]

Structures are written as SMILES. Read-outs that look alike come from different tables or passages of the source.

As for `N[C@@H](Cc1ccc(N(CCCl)CCCl)cc1)C(=O)O` [melphalan, 4-[Bis(2-chloroethyl)amino]-L-phenylalanine], the AUC (commonly concentration integrated over time) is, setting by setting: (10 % of the expected standard full dose, lower test doses, PS-MS/MS, n=4, read-out: calculated mean AUC) 410 ± 230 ng·h/mL; (full dose, PS-MS/MS method, n=5, read-out: calculated mean AUC) 4900 ± 1500 ng·h/mL.
